Test systems include DU-145 prostate; HCT-15 colon; MOLT-4 leukemia; NCI-H23 lung; RXF 393 renal; SK-MEL-28 melanoma; SR leukemia; T-47D breast; UACC-62 melanoma; PC-3 prostate.
Holding throughout (assay): NCI anticancer screen, dose series, 48 h

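96-well plates; 48 h exposure; 5 concentrations. Endpoints by linear interpolation between flanking doses. Not reached: highest tested concentration assigned. GI50: concentration for 50% inhibition of growth. TGI: total growth inhibition.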

For the compound `Nc1ccc(C2=NN(c3ccccc3)C(c3ccc(Cl)cc3)C2)cc1` (stereo not given), the GI50 in the assay on DU-145 prostate was 3.54 µM; with HCT-15 colon, 2.62 µM; in the assay with MOLT-4 leukemia, 2.23 µM; with NCI-H23 lung, 2.12 µM; with RXF 393 renal, 1.55 µM; with SK-MEL-28 melanoma it was 2.07 µM. The GI50 with SR leukemia was 1.71 µM; with T-47D breast it was 2.06 µM; in the assay on UACC-62 melanoma, 3.12 µM. In addition, the TGI stood at 11.3 µM in the assay on DU-145 prostate; 7.9 µM with HCT-15 colon; 6.61 µM in the assay with MOLT-4 leukemia; 5.09 µM in the assay on NCI-H23 lung; 3.12 µM in the assay with RXF 393 renal; 4.68 µM in the assay on SK-MEL-28 melanoma. The values for the TGI in the assay with SR leukemia, with T-47D breast and in the assay with UACC-62 melanoma were 4.27 µM, 4.48 µM and 12.9 µM, respectively.
As to `COCCCNC(=O)C1C(=O)N(CCCOC)C(=O)/C1=N\N` (stereo not given), the TGI with HCT-15 colon, in the assay with MOLT-4 leukemia, in the assay with NCI-H23 lung, in the assay on RXF 393 renal, in the assay on SK-MEL-28 melanoma and in the assay with UACC-62 melanoma was above 100 µM each time.
Consider `C=C(c1ccc2nc(NC(=O)OC)[nH]c2c1)c1cccs1`, for which the TGI in the assay with DU-145 prostate is above 100 µM; in the assay on HCT-15 colon it was 2.24 µM; in the assay with PC-3 prostate, above 100 µM; with RXF 393 renal, above 100 µM; in the assay with SK-MEL-28 melanoma it was above 100 µM; in the assay on SR leukemia, 1.11 µM. The compound also came in with a TGI with UACC-62 melanoma above 100 µM.
As for `Cc1cc2c(ccc3c(C)cc(=O)oc32)o1`, the TGI in the assay with HCT-15 colon, in the assay with MOLT-4 leukemia, in the assay on NCI-H23 lung, in the assay on RXF 393 renal, in the assay on SK-MEL-28 melanoma and in the assay with SR leukemia was above 100 µM each time. In the assay with UACC-62 melanoma, this compound returned a TGI above 100 µM.
Take `CCC[CH2][Sn]1([CH2]CCC)[O]CC(Cc2ccccc2)[O]1` (stereo not given): the GI50 in the assay on HCT-15 colon is 2.24 µM; in the assay on MOLT-4 leukemia, 1.64 µM; in the assay on NCI-H23 lung, 1.53 µM; with RXF 393 renal, 1.47 µM; in the assay with SK-MEL-28 melanoma it was 1.58 µM; in the assay on SR leukemia, 1.35 µM. Further, the GI50 in the assay with UACC-62 melanoma was 1.7 µM. Besides, the TGI in the assay on HCT-15 colon is 5.82 µM; in the assay with MOLT-4 leukemia it was 6.07 µM; in the assay on NCI-H23 lung, 4.05 µM; with RXF 393 renal, 2.84 µM; in the assay on SK-MEL-28 melanoma, 5.24 µM; with SR leukemia, 4.84 µM. In the assay on UACC-62 melanoma, the TGI is 3.69 µM.
Consider `CN(C)CC(C)(C)C(=O)/C=C/c1ccc(/C=C/C(=O)C(C)(C)CN(C)C)cc1`, for which the TGI came to 5.49 µM with HCT-15 colon; 3.93 µM in the assay with NCI-H23 lung; 2.66 µM in the assay with RXF 393 renal; 3.5 µM with SK-MEL-28 melanoma; 5.45 µM in the assay on SR leukemia; 3.17 µM in the assay with UACC-62 melanoma.
`COc1ccc(OC)c2c1CC(C(=O)O)(C(=O)O)CC2=O`: the TGI with HCT-15 colon, in the assay with MOLT-4 leukemia, in the assay on NCI-H23 lung, in the assay on RXF 393 renal, with SK-MEL-28 melanoma and with UACC-62 melanoma was above 100 µM in each case.
On to `CCOc1ccc2nc(SCc3nc4n(n3)S(=O)(=O)c3ccccc3N4C)sc2c1`, for which the GI50 was above 100 µM in the assay on DU-145 prostate; above 100 µM in the assay on HCT-15 colon; above 100 µM in the assay on MOLT-4 leukemia; 57.7 µM with NCI-H23 lung; 30.1 µM in the assay on RXF 393 renal; above 100 µM with SK-MEL-28 melanoma. In addition, the GI50 in the assay with SR leukemia is 51.5 µM; in the assay with T-47D breast, 81.6 µM; with UACC-62 melanoma it was above 100 µM. In addition, the TGI in the assay with DU-145 prostate is above 100 µM; with HCT-15 colon, above 100 µM; with MOLT-4 leukemia it was above 100 µM; with NCI-H23 lung it was above 100 µM; in the assay on RXF 393 renal, 97.3 µM; with SK-MEL-28 melanoma, above 100 µM. In addition, the TGI with SR leukemia, in the assay with T-47D breast and with UACC-62 melanoma was above 100 µM in each case.
As to `C=C1C(O)C2C(=C(CCc3ccccc3)C13CC3)C(=O)C(C)(CO)C2O` (stereo not given), the GI50 is above 100 µM in the assay on DU-145 prostate; above 100 µM in the assay on HCT-15 colon; 64.1 µM in the assay with MOLT-4 leukemia; above 100 µM with NCI-H23 lung; above 100 µM with PC-3 prostate; above 100 µM in the assay with RXF 393 renal. Moreover, the values for the GI50 in the assay with SK-MEL-28 melanoma, with SR leukemia and in the assay on UACC-62 melanoma were above 100 µM, 38.6 µM and above 100 µM, respectively. In addition, the TGI with DU-145 prostate, in the assay with HCT-15 colon, in the assay on MOLT-4 leukemia, in the assay on NCI-H23 lung, in the assay with PC-3 prostate and in the assay with RXF 393 renal was above 100 µM each time. For the same compound, the TGI in the assay with SK-MEL-28 melanoma, with SR leukemia and in the assay on UACC-62 melanoma was above 100 µM each time.
As for `Cc1[nH]c2ccccc2c1C(=O)CC1(O)C(=O)Nc2ccccc21` (stereo not given), the TGI in the assay with HCT-15 colon, with MOLT-4 leukemia, with NCI-H23 lung, in the assay on RXF 393 renal, in the assay with SK-MEL-28 melanoma and in the assay on SR leukemia was above 100 µM throughout. Further, the TGI in the assay with UACC-62 melanoma was above 100 µM.
On to `c1cc(N(CCn2cccn2)CCn2cccn2)cc(N(CCn2cccn2)CCn2cccn2)c1`, for which the TGI in the assay with HCT-15 colon, in the assay on MOLT-4 leukemia, with RXF 393 renal, in the assay with SK-MEL-28 melanoma, in the assay with SR leukemia and in the assay on UACC-62 melanoma was above 100 µM each time.
With `C=C(COC(C)=O)CC(OC(C)=O)c1ccccc1` (stereo not given), the TGI in the assay on HCT-15 colon, with MOLT-4 leukemia, in the assay on NCI-H23 lung, with RXF 393 renal, in the assay with SK-MEL-28 melanoma and in the assay on UACC-62 melanoma was above 100 µM in each case.
Consider `Cc1ccc(NC(=O)C2C(=O)N(c3ccc(C)cc3)C(=O)/C2=N\NC(N)=S)cc1` (stereo not given), for which the TGI with HCT-15 colon, with MOLT-4 leukemia, in the assay with NCI-H23 lung, in the assay on RXF 393 renal, in the assay with SK-MEL-28 melanoma and in the assay on UACC-62 melanoma was above 100 µM each time.

Source of the values: PubChem BioAssay (NCI).
